The test system of one assay is HCT116 cells. The experiment in a line: Inhibition of cell proliferation by CTG (CellTiter-Glo) luminescence assay. The following applies: Homo sapiens, read-out: HCT116, IC50. The class given is cell-based. An outline of the steps:
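Nine-point 1:3 dilutions applied to HCT116 cells (2 000/well, McCoy's 5a + 10 % FBS) for 72 h at 37 °C, final DMSO 0.25 %. Viability read by CellTiter-Glo luminescence; % inhibition versus DMSO controls fitted to four-parameter logistic for IC50.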
Background: Cellular ATP, detected with luciferase, serves as a proxy for viable cell number.

The target of a further assay is T1, topoisomerase I (Topo I) (Homo sapiens, UniProt P11387).
T1 sequence (P11387 1-765): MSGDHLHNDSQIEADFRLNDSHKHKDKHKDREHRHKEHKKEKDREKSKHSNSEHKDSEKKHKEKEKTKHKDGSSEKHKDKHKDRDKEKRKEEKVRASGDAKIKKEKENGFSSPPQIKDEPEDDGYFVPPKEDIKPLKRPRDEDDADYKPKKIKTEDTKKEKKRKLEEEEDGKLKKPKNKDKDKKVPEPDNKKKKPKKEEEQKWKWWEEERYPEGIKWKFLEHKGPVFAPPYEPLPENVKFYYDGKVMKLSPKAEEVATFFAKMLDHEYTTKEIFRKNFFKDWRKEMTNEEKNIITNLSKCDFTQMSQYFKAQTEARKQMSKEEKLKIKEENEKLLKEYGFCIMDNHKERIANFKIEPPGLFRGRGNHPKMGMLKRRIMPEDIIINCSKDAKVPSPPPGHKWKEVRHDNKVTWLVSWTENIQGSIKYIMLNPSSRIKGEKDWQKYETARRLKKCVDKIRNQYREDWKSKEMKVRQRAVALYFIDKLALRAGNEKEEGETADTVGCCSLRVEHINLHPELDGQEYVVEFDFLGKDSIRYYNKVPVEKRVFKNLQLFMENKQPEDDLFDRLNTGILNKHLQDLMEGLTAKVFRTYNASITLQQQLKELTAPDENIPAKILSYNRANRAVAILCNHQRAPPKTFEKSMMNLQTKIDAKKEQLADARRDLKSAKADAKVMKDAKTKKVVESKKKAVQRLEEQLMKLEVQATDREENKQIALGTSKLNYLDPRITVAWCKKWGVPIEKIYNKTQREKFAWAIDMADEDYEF
The experiment in a line: Topo I enzyme-inhibitory activity by agarose-gel electrophoresis (plasmid relaxation). The class given is biochemical. The source says:
Test Example 1. Determination of Topo I Enzyme-Inhibitory Activity by Agarose-Gel Electrophoresis
Principle: Type-I topoisomerase (Topo I) relaxes positive and negative supercoils by introducing transient single-strand breaks and forming reversible cleavage complexes (Topo I-DNA covalent complexes). Gel electrophoresis can resolve DNA species of identical molecular weight but different topology: supercoiled plasmid migrates fastest, whereas the nicked, relaxed form moves more slowly. Quantifying the decrease in supercoiled DNA therefore provides a direct measure of Topo I activity.
Experimental Procedure: A 1× reaction buffer was prepared (20 mM Tris-HCl pH 7.5, 200 mM NaCl, 0.25 mM EDTA, 5 % (v/v) glycerol, 0.5 µg pNO1 plasmid substrate). Test compounds (5 % DMSO final) were added to the buffer, followed by Topo I enzyme (0.75 U per reaction). After gentle mixing, reactions were incubated at 37 °C for 30 min. Positive (enzyme + vehicle) and negative (no enzyme) controls were included in parallel. Reactions were terminated by adding STEB buffer and chloroform/iso-amyl alcohol (24:1, v/v), vortexed and centrifuged for 2 min. The aqueous (upper) phase was loaded onto a 1 % (w/v) agarose gel, electrophoresed for 1-2 h, stained with GelRed, and imaged under UV trans-illumination.
Data Analysis: Band intensities of supercoiled DNA were quantified with image-analysis software. Relaxation activity (%) was calculated as (Max-Sample)/ (Max-Min)*100%, where Max = intensity of the no-enzyme negative control, Min = intensity of the vehicle-only positive control, and Sample = intensity of the compound-treated lane. Dose-response data (compound concentration, X; relaxation activity %, Y) were fitted in Excel or GraphPad Prism 5.0 using the four-parameter logistic equation: Y=Bottom + (Top-Bottom)/(1+(IC50/X)[…]) to derive the IC50 value for each compound.
Table 1. Compound-mediated inhibition of topoisomerase I (Topo I) enzymatic activity

[1] abbreviates: read-out: inhibition of topoisomerase I (Topo I) enzymatic activity, IC50; 0.75 U Topo I, pNO1 plasmid, 37 °C, 30 min; compounds listed by group (Group A / Group B).
[2] abbreviates: HCT-116, 72 h incubation, CellTiter-Glo.
Where [3] appears, read: 0.75 U Topo I, pNO1 plasmid, 37 °C, 30 min; compounds listed by group (Group A / Group B); read-out: inhibition of topoisomerase I (Topo I) enzymatic activity, IC50.

The structures appear in SMILES notation. Values joined by “and” are separate entries in the source; they are usually repeats but may differ in a detail not shown here. Equal values may be shown once. Read-outs that look alike come from different tables or passages of the source.

The text below walks through data of patent publication EP4778929A1, “NOVEL TYPE I TOPOISOMERASE INHIBITOR, AND PREPARATION METHOD THEREFOR AND USE THEREOF” (priority 2023, dated 2025).

On to `CC[C@@]1(O)C(=O)OCc2c1cc1n(c2=O)Cc2c-1c(=O)c1cc3c(cc1n2-c1ccc(N)cc1)OCO3` [Example 67, (S)-5-(4-aminophenyl)-12-ethyl-12-hydroxy-9,12-dihydro-8H-[1,3]dioxolo[4,5-g]pyrano[3,4:6,7]indolizino[2,1-b]quinoline-8,11,14 (SH,6H)-trione], for which the IC50 with HCT116 cells (HCT-116, 72 h) was under 20 nM; on topoisomerase I (Topo I) (setting [1]), 200 to 500 nM.
In the case of `CC[C@@]1(O)C(=O)OCc2c1cc1n(c2=O)Cc2c-1c(=O)c1cc(F)c(C)cc1n2-c1ccc(N)cc1` [Example 68, (S)-11-(4-aminophenyl)-4-ethyl-8-fluoro-4-hydroxy-9-methyl-1,12-dihydro-14H-pyrano[3,4:6,7]indolizino[2,1-b]quinoline-3,6,14 (4H,11H)-trione], the IC50 is under 20 nM with HCT116 cells (HCT-116, 72 h) and 200 to 500 nM on topoisomerase I (Topo I) (setting [1]).
`CC[C@@]1(O)C(=O)OCc2c1cc1n(c2=O)Cc2c-1c(=O)c1cc(F)c(N)cc1n2C1CCCC1` [Example 69, (S)-9-amino-4-ethyl-8-fluoro-4-hydroxy-11-cyclopentyl-1,12-dihydro-14H-pyrano[3,4:6,7]indolizino[2,1-b]quinoline-3,6,14(4H,11H)-trione]: the results for the IC50 with HCT116 cells (setting [2]) and on topoisomerase I (Topo I) (setting [3]) were under 20 nM and under 200 nM, respectively.
With `CC[C@@]1(O)C(=O)OCc2c1cc1n(c2=O)Cc2c-1c(=O)c1cc(F)c(N)cc1n2C1CCC(C)(C)CC1` [Example 70, (S)-9-amino-4-ethyl-8-fluoro-4-hydroxy-11-(4,4-dimethylcyclohexyl)-1,12-dihydro-14H-pyrano[3,4:6,7]indolizino[2,1-b] quinoline-3,6,14(4H,11H)-trione], the IC50 is under 20 nM in the assay with HCT116 cells (HCT-116, 72 h) and 200 to 500 nM at topoisomerase I (Topo I) (setting [1]).
In the case of `CC[C@@]1(O)C(=O)OCc2c1cc1n(c2=O)Cc2c-1c(=O)c1cc(F)ccc1n2-c1cccc(N)c1` [Example 71, (S)-11-(3-aminophenyl)-4-ethyl-8-fluoro-4-hydroxy-1H-pyrano[3,4:6,7]indolizino[2,1-b]quinoline-3,6,14(4H,11H,12H)-trione], the IC50 was under 20 nM with HCT116 cells (HCT-116, 72 h) and 200 to 500 nM on topoisomerase I (Topo I) (setting [1]).
Consider `CC[C@@]1(O)C(=O)OCc2c1cc1n(c2=O)Cc2c-1c(=O)c1cc(F)ccc1n2-c1ccc(N)cc1` [Example 72, (S)-11-(4-aminophenyl)-4-ethyl-8-fluoro-4-hydroxy-1H-pyrano[3,4:6,7]indolizino[2,1-b]quinoline-3,6,14(4H,11H,12H)-trione], for which the IC50 in the assay with HCT116 cells (HCT-116, 72 h) is under 20 nM; at topoisomerase I (Topo I) (setting [1]), 200 to 500 nM.
In the same order, the values of `CC[C@@]1(O)C(=O)OCc2c1cc1n(c2=O)Cc2c-1c(=O)c1cc(F)ccc1n2-c1cccc(OC)c1` [Example 73, (S)-4-ethyl-8-fluoro-4-hydroxy-11-(3-methoxyphenyl)-1,12-dihydro-14H-pyrano[3,4:6,7]indolizino[2,1-b]quinoline-3,6,14(4H,11H)-trione] are under 20 nM and 200 to 500 nM.
As for `CC[C@@]1(O)C(=O)OCc2c1cc1n(c2=O)Cc2c-1c(=O)c1cc(F)cc(CNC3CC3)c1n2C` [Example 88, (S)-10-((cyclopropylamino)methyl)-4-ethyl-8-fluoro-4-hydroxy-11-methyl-1,12-dihydro-14H-pyrano[3,4:6,7]indolizino[2,1-b] quinoline-3,6,14(4H,11H)-trione], the IC50 with HCT116 cells (HCT-116, 72 h) is under 20 nM; on topoisomerase I (Topo I) (setting [1]), 200 to 500 nM.
For `CC[C@@]1(O)C(=O)OCc2c1cc1n(c2=O)Cc2c-1c(=O)c1cc(F)cc(CN(C)C3CC3)c1n2C` [Example 89, (S)-10-((cyclopropyl(methyl)amino)methyl)-4-ethyl-8-fluoro-4-hydroxy-11-methyl-1,12-dihydro-14H-pyrano[3,4:6,7]indolizino[2,1-b]quinoline-3,6,14(4H,11H)-trione], the IC50 in the assay on HCT116 cells (HCT-116, 72 h) was under 20 nM; on topoisomerase I (Topo I) (setting [1]) it was 200 to 500 nM.
For the compound `CC[C@@]1(O)C(=O)OCc2c1cc1n(c2=O)Cc2c-1c(=O)c1cc(F)ccc1n2CCN(C1CC1)C1CC(F)(F)C1` [Example 101, (S)-11-(2-(cyclopropyl(3,3-difluorocyclobutyl)amino)ethyl)-4-ethyl-8-fluoro-4-hydroxy-1,12-dihydro-14H-pyrano[3,4:6,7] indolizino[2,1-b]quinoline-3,6,14(4H,11H)-trione], the IC50 in the assay on HCT116 cells (HCT-116, 72 h) is under 20 nM; at topoisomerase I (Topo I) (setting [1]), 200 to 500 nM and < 200 nM.
For the compound `CC[C@@]1(O)C(=O)OCc2c1cc1n(c2=O)Cc2c-1c(=O)c1cc(F)ccc1n2CCNC1CCC1` [Example 106], the IC50 is under 20 nM in the assay with HCT116 cells (HCT-116, 72 h) and 200 to 500 nM on topoisomerase I (Topo I) (setting [1]).
Consider `CC[C@@]1(O)C(=O)OCc2c1cc1n(c2=O)Cc2c-1c(=O)c1cc(F)ccc1n2CCN(C1CCC1)C1CCC1` [Example 119], for which the half-inhibitory concentration (IC50) is under 20 nM with HCT116 cells (HCT-116, 72 h) and 200 to 500 nM at topoisomerase I (Topo I) (setting [1]).
As for `CC[C@@]1(O)C(=O)OCc2c1cc1n(c2=O)Cc2c-1c(=O)c1cc(F)ccc1n2CCN(C1CCCC1)C1CC1` [Example 137], the IC50 with HCT116 cells (HCT-116, 72 h) is under 20 nM; on topoisomerase I (Topo I) (setting [1]), 200 to 500 nM.
Regarding `CC[C@@]1(O)C(=O)OCc2c1cc1n(c2=O)Cc2c-1c(=O)c1cc(F)ccc1n2CCNC1CCCC1(C)C` (some centres unmarked) [Example 138], the IC50 with HCT116 cells (HCT-116, 72 h) is under 20 nM; at topoisomerase I (Topo I) (setting [1]) it was 200 to 500 nM.
Consider `CC[C@@]1(O)C(=O)OCc2c1cc1n(c2=O)Cc2c-1c(=O)c1cc(F)ccc1n2CCN(C)C1CCCC1(C)C` (some centres unmarked) [Example 139], for which the IC50 in the assay with HCT116 cells (HCT-116, 72 h) was under 20 nM; at topoisomerase I (Topo I) (setting [1]), 200 to 500 nM.
`CC[C@@]1(O)C(=O)OCc2c1cc1n(c2=O)Cc2c-1c(=O)c1cc(F)ccc1n2CCN(C1CC1)C1CC1` [Example 140]: the IC50 was under 20 nM in the assay on HCT116 cells (HCT-116, 72 h) and under 200 nM at topoisomerase I (Topo I) (setting [1]).
In the same order, the values of `CC[C@@]1(O)C(=O)OCc2c1cc1n(c2=O)Cc2c-1c(=O)c1cc(F)ccc1n2CCN(C1CCC1)C1CC1` [Example 141] are under 20 nM and 200 to 500 nM.
As to `CC[C@@]1(O)C(=O)OCc2c1cc1n(c2=O)Cc2c-1c(=O)c1cc(F)c(C)cc1n2CCNC1CCC1` [Example 159], the IC50 with HCT116 cells (HCT-116, 72 h) was under 20 nM; on topoisomerase I (Topo I) (setting [1]) it was 200 to 500 nM.
With `CC[C@@]1(O)C(=O)OCc2c1cc1n(c2=O)Cc2c-1c(=O)c1cc(F)c(C)cc1n2CCNC1CC(F)(F)C1` [Example 160], the IC50 in the assay on HCT116 cells (setting [2]) was under 20 nM; on topoisomerase I (Topo I) (setting [3]), 200 to 500 nM.
On to `CC[C@@]1(O)C(=O)OCc2c1cc1n(c2=O)Cc2c-1c(=O)c1cc(F)c(C)cc1n2CCNC1CC1` [Example 161], for which the IC50 is under 20 nM in the assay on HCT116 cells (HCT-116, 72 h) and 200 to 500 nM on topoisomerase I (Topo I) (setting [1]).
In the case of `CC[C@@]1(O)C(=O)OCc2c1cc1n(c2=O)Cc2c-1c(=O)c1cc(F)c(C)cc1n2CCNC1CCCC1` [Example 163], the IC50 with HCT116 cells (HCT-116, 72 h) is under 20 nM; on topoisomerase I (Topo I) (setting [1]) it was 200 to 500 nM.
Take `CC[C@@]1(O)C(=O)OCc2c1cc1n(c2=O)Cc2c-1c(=O)c1cc(F)c(C)cc1n2CCN(C)C1CC1` [Example 164]: the IC50 was under 20 nM with HCT116 cells (HCT-116, 72 h) and 200 to 500 nM at topoisomerase I (Topo I) (setting [1]).
With `CC[C@@]1(O)C(=O)OCc2c1cc1n(c2=O)Cc2c-1c(=O)c1cc(F)c(C)cc1n2CCN(C1CC1)C1CC(F)(F)C1` [Example 165], the IC50 with HCT116 cells (HCT-116, 72 h) is under 20 nM; at topoisomerase I (Topo I) (setting [1]), 200 to 500 nM.
As for `CC[C@@]1(O)C(=O)OCc2c1cc1n(c2=O)Cc2c-1c(=O)c1cc(F)c(C)cc1n2CCN(C)C1CCCC1` [Example 166], the IC50 is under 20 nM in the assay with HCT116 cells (HCT-116, 72 h) and 200 to 500 nM at topoisomerase I (Topo I) (setting [1]).
Taken in the same sequence, the figures for `CC[C@@]1(O)C(=O)OCc2c1cc1n(c2=O)Cc2c-1c(=O)c1cc(F)c(C)cc1n2CCN(C1CCCC1)C1CC1` [Example 167] were under 20 nM and 200 to 500 nM.

One may read the IC50 as the concentration at which inhibition is half-maximal.
